Assay results as given in ChEMBL document CHEMBL4422623, “Synthesis of spiro-2,6-dioxopiperazine and spiro-2,6-dioxopyrazine scaffolds using amino acids in a three-component reaction to generate potential Sigma-1 (σ1) receptor selective ligands” (Eur J Med Chem, 2019).

How the values were obtained:
[1] = molecular target: 5-hydroxytryptamine receptor 2B (Homo sapiens, UniProt P41595); test: Displacement of [3H]LSD from human 5-HT2B receptor expressed in HEK cells by radioligand binding assay; type: cell-based
Mu-type opioid receptor = Mu-type opioid receptor (Homo sapiens, UniProt P35372); test: Displacement of [3H]DAMGO from human mu opioid receptor expressed in HEK cells by radioligand binding assay; type: cell-based
[2] = molecular target: T1, Sigma intracellular receptor 2 (Rattus norvegicus, UniProt Q5U3Y7); test: Displacement of [3H]DTG from sigma-2 receptor in rat PC12 cells by radioligand binding assay; type: cell-based
T1 sequence (Q5U3Y7 whole entry): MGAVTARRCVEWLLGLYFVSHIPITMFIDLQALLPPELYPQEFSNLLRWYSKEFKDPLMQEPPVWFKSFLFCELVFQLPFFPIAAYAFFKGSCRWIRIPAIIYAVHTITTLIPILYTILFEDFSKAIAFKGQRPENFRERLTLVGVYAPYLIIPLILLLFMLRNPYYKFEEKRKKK

D(4) dopamine receptor = molecular target: T2, D(4) dopamine receptor (Homo sapiens, UniProt P21917); test: Displacement of [3H]N-methylspiperone from human D4 receptor by radioligand binding assay
T2 sequence (P21917 whole entry): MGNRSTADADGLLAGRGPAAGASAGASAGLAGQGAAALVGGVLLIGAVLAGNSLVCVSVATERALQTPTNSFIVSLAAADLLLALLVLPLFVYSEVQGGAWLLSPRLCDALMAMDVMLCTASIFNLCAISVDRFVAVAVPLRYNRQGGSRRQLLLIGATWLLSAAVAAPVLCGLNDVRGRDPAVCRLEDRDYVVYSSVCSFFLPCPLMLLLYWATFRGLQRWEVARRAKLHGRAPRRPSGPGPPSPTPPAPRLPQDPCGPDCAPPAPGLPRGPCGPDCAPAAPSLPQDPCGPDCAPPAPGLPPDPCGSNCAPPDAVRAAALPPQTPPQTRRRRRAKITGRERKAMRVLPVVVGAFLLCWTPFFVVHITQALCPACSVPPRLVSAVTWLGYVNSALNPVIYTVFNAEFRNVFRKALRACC

[3] = molecular target: Sigma non-opioid intracellular receptor 1 (Cavia porcellus, UniProt Q60492); test: Displacement of [3H]Pentazocine from guinea pig sigma-1 receptor by radioligand binding assay
[4] = molecular target: Sodium-dependent dopamine transporter (Homo sapiens, UniProt Q01959); test: Displacement of [3H]WIN35428 from human DAT receptor expressed in HEK cells by radioligand binding assay; type: cell-based
[5] = molecular target: Kappa-type opioid receptor (Homo sapiens, UniProt P41145); test: Displacement of [3H]U69593 from human kappa opioid receptor expressed in HEK cells by radioligand binding assay; type: cell-based
[6] = molecular target: 5-hydroxytryptamine receptor 7 (Homo sapiens, UniProt P34969); test: Displacement of [3H]LSD from human 5-HT7 receptor expressed in HEK cells by radioligand binding assay; type: cell-based
Histamine H2 receptor = Histamine H2 receptor (Homo sapiens, UniProt P25021); test: Binding affinity to human histamine 2 receptor expressed in HEK cells by radioligand binding assay; type: cell-based
[7] = molecular target: T3, Alpha-2A adrenergic receptor (Homo sapiens, UniProt P08913); test: Displacement of […] from human adrenergic alpha 2A receptor expressed in MDCK cells by radioligand binding assay; type: cell-based
T3 sequence (P08913 whole entry): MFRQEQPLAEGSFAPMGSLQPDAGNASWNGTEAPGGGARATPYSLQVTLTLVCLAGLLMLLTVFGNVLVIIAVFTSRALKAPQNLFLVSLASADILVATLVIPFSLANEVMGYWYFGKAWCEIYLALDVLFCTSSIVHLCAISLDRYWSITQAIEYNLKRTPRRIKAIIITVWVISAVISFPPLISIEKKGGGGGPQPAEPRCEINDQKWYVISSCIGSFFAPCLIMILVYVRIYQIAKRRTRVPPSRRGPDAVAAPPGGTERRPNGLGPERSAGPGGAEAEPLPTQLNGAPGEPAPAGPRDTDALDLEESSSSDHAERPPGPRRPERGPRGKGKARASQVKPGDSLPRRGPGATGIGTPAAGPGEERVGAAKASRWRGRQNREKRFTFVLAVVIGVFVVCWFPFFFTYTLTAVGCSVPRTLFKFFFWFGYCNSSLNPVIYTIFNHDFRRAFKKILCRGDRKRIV

Sequence of Mu-type opioid receptor (P35372 whole entry): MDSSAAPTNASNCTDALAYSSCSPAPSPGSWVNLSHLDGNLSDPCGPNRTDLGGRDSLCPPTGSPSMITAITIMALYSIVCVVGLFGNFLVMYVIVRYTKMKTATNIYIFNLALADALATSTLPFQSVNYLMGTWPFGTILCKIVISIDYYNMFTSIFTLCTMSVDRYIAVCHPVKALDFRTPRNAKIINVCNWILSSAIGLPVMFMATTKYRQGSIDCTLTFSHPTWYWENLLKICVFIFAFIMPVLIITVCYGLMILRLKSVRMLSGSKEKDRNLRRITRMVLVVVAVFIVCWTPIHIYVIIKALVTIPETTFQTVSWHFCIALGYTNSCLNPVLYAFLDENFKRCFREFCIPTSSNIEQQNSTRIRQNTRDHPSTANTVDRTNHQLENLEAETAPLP
Sequence of 5-hydroxytryptamine receptor 2B (P41595 whole entry): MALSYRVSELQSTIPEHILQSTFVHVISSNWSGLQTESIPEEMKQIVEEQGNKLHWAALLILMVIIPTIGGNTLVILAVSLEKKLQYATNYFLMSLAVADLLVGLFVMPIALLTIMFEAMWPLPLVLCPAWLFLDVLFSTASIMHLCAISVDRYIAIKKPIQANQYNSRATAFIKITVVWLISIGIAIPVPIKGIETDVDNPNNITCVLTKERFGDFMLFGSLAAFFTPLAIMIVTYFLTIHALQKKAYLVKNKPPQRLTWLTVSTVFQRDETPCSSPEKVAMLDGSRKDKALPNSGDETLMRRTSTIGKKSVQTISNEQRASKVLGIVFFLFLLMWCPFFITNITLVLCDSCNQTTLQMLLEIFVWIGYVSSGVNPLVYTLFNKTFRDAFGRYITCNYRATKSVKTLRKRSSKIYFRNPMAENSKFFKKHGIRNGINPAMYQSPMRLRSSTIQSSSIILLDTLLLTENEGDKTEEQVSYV
Sequence of Histamine H2 receptor (P25021 whole entry): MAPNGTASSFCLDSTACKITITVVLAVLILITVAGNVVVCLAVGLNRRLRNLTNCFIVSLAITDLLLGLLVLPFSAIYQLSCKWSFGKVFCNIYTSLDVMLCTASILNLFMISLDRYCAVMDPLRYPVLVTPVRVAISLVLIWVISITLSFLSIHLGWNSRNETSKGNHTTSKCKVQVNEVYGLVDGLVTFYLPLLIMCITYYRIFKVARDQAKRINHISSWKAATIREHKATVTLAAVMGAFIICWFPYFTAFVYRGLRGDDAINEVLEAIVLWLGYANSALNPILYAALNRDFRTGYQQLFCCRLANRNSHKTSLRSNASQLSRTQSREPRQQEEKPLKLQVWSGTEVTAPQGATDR
Sequence of Kappa-type opioid receptor (P41145 whole entry): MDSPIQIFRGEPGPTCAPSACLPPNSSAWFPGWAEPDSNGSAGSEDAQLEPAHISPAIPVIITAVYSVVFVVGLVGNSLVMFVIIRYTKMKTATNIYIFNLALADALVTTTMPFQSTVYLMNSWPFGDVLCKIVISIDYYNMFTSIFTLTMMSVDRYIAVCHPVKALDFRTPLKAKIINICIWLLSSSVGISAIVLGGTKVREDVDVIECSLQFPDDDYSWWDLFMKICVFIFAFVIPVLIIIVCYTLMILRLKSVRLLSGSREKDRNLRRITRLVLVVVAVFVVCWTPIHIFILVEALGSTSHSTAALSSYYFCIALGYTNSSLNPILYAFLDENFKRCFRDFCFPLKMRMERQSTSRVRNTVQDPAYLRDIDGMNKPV
Sequence of 5-hydroxytryptamine receptor 7 (P34969 whole entry): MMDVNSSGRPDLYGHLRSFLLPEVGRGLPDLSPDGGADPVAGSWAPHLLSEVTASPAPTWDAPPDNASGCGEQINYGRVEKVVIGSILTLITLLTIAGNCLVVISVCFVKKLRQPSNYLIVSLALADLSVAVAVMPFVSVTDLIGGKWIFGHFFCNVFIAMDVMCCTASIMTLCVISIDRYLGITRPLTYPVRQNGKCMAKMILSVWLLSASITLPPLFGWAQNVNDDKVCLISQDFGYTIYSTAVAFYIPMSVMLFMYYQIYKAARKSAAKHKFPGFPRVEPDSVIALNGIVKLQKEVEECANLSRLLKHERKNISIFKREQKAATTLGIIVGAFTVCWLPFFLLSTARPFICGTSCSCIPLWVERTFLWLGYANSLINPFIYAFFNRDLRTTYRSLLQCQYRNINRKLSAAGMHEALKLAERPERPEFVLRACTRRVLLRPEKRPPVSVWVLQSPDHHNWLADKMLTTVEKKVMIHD
Sequence of Sodium-dependent dopamine transporter (Q01959 whole entry): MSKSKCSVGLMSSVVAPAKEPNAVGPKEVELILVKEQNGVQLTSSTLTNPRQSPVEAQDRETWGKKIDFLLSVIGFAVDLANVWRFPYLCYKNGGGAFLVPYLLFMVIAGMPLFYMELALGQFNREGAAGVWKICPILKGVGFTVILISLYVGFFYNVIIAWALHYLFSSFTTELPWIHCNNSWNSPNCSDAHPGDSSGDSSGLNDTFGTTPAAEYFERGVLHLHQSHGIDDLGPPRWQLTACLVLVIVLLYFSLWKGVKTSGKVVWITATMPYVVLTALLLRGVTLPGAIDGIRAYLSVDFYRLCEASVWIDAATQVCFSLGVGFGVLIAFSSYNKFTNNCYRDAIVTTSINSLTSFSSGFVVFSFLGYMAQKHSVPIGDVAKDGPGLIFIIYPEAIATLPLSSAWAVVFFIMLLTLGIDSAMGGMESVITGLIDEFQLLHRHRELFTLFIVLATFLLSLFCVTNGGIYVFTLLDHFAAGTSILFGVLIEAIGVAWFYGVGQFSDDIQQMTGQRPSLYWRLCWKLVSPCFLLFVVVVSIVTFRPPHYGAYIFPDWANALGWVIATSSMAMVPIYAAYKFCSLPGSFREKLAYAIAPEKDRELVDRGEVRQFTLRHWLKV
Sequence of Sigma non-opioid intracellular receptor 1 (Q60492 whole entry): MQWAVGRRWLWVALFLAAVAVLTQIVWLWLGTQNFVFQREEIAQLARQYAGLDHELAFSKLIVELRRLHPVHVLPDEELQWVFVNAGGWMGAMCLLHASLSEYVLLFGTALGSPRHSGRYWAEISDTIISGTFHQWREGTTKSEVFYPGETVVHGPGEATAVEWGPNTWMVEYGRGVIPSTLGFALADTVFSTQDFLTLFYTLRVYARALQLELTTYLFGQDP

Row | SMILES | Ki [1] | Ki (Mu-type opioid receptor) | Ki [2] | Ki (D(4) dopamine receptor) | Ki [3] | Ki [4] | Ki [5] | Ki [6] | Ki (Histamine H2 receptor) | Ki [7]
1 | Cc1cccc(C)c1N1C(=O)[C@H](CO)NC2(CCN(C)CC2)C1=O | 2.05 µM | 1.63 µM | – | – | – | – | – | – | – | –
2 | CC1=NC2(CCN(C)CC2)C(=O)N(c2c(C)cccc2C)C1=O | 0.231 µM | – | 0.696 µM | 1.28 µM | 0.0086 µM | 2.56 µM | 1.71 µM | 2.77 µM | 0.823 µM | 3.36 µM
3 | Cc1cccc(C)c1N1C(=O)[C@H](CC2CNc3ccccc32)NC2(CCN(C)CC2)C1=O (stereo partly specified) | 0.84 µM | 0.993 µM | – | – | – | – | – | – | 0.546 µM | –
4 | Cc1cccc(C)c1N1C(=O)CNC2(CCN(C)CC2)C1=O | 0.742 µM | 10 µM | – | – | – | – | – | – | – | –
